Here are results for 3 compounds from US7709497B2, “Pyrazolo[3,4-b]pyridine compound, and its use as a PDE4 inhibitor” (Glaxo Group Limited, priority 2004, dated 2010).

Test [1] relates to Dinitrofluorobenzene (DNFB)-induced delayed type hypersensitivity (DTH) response in pigs. In words: Pig model of atopic dermatitis: DNFB-induced DTH response, skin topical administration. It is filed as in vivo. An excerpt:
The pig DTH (delayed type hypersensitivity) model of contact hypersensitivity utilizes the Th2-mediated inflammatory response in pig skin to mimic the pathology of atopic dermatitis in humans. The model measures the potential anti-inflammatory effect of compounds, topically-applied to the skin, on the acute DTH (delayed type hypersensitivity) response in castrated male Yorkshire pigs.
In general in the assay, pigs (domestic Yorkshire pigs, 15-18 kg at time of sensitization, castrated males) are first sensitized by topical application of ca. 10% (w/v) dinitrofluorobenzene (DNFB) dissolved in DMSO:acetone:olive oil (ca. 1:5:3) (ca. 40 mg DNFB, 400 microlitre solution total) to the ears (outer) and groin (inner). The pigs are then challenged 12 days later with ca. 0.6% (w/v) DNFB applied to randomized sites on the shaved back of the pigs (ca. 90 micrograms/site; sites are identified and numbered by grid made with marking pen).
On the day of challenge, the treatments are performed at about 2 hours prior to and about 6 hours after challenge (for DMSO/acetone solutions/suspensions, to maximize exposure to drug), or at about 30 minutes after and about 6 hours after challenge (for topical ointments or creams, representing a more clinically relevant treatment protocol).
One day (about 24 hrs) after challenge, and optionally again at ca. 48 hrs post challenge, test sites are visually evaluated for intensity and extent of erythema by measuring the diameter of the reaction at its widest point and assigning scores of 0 to 4 for each of erythema intensity and erythema extent. Induration (a measure of swelling) is also scored 0 to 4. Scores for erythema intensity, erythema extent and induration are assigned according to the following criteria: Intensity of Erythema: 0=normal, 1=minimal, barely visible, 2=mild, 3=moderate, 4=severe. Extent of Erythema (not raised): 0=no edema, 1=macules of pin head size, 2=lentil sized macules, 3=confluent macules, 4=diffuse over entire site. Induration (palpable): 0=normal, 1=nodules of pin head size, 2=doughy lentil sized nodules, 3=confluent firm nodules, 4=diffuse hard lesion. The summed visual score at ca. 24 hours includes the individual scores for erythema intensity, erythema extent, and induration; so the maximal summed score for each site would be 12. High summed scores can generally indicate a high inflammatory response. Visual scores are subject to some inaccuracy/error.
Differences in the summed score between adjacent control (placebo) and treatment sites on the grids are calculated. This difference value is then used to determine the percent inhibition compared to the summed score for the control (placebo) sites. The more negative the difference value, the greater the calculated inhibition. Percent inhibition of (percent inhibition compared to) the mean summed score can be calculated.
About 24 hours after challenge, treatment sites can optionally also be visually evaluated for lesion area.
The anti-inflammatory effect of the compound of formula (I) (“free base” form), applied topically to the skin, on the acute DTH response in castrated male Yorkshire pigs is compared to that of another PDE4 inhibitor cipamfylline (BRL-61063) and the topical immunomodulator pimecrolimus.
In the above assay, the compound of formula (I) is topically administered: either (A) at ca. 2.5% (w/v) concentration in a solution of ca. 10% DMSO/90% acetone (ca. 50 microliters or ca. 1.5 mg/site) at about 2 hours prior to and about 6 hours after the DNFB challenge; or (B) at ca. 0.5% (w/w) concentration in an ointment containing propylene glycol (PG)*(ca. 25 mg of formulation/site) at about 30 minutes after and about 6 hours after the DNFB challenge. […]

Test [2] concerns atopic dermatitis patients. To be noted: 0.15% cream vs cream vehicle and hydrocortisone 17-butyrate (0.1%) cream; cited from earlier work.
For another test, the system named is COPD patients. To be noted: cilomilast: 15 mg orally twice daily; cited from earlier work.

`Nc1nc2c([nH]1)c(=O)n(CC1CC1)c(=O)n2CC1CC1` [cipamfylline, reference compound]: the “reduction in summed scores” value in test [1] (ca. 0.25% (w/w) in ointment, not statistically significant) is 6-7%. In addition, the “reduction in mean summed score” value in test [1] (ca. 2.5% (w/v) in DMSO/acetone solution, vs vehicle alone, ca. 24 h after challenge) is “about 8%”. In addition, the “efficacy in treatment of atopic dermatitis patients” value in test [2] is “significantly more effective than vehicle, but significantly less effective than hydrocortisone 17-butyrate (0.1%) cream”.

With `CC[C@@H]1/C=C(\C)C[C@H](C)C[C@H](OC)[C@H]2O[C@@](O)(C(=O)C(=O)N3CCCC[C@H]3C(=O)O[C@H](/C(C)=C/[C@@H]3CC[C@H](Cl)[C@H](OC)C3)[C@H](C)[C@@H](O)CC1=O)[C@H](C)C[C@@H]2OC` [pimecrolimus, reference compound], the “inhibition of summed scores” value in test [1] (1% (w/w) cream formulation, p<0.05 by ANOVA) is “about 29%”.

For `COc1ccc([C@]2(C#N)CC[C@@H](C(=O)O)CC2)cc1OC1CCCC1` [cilomilast], the “forced expiratory volume in 1s (FEV1) in COPD patients” value in the test on COPD patients is given as “appears to improve forced expiratory volume in 1s (FEV1)”.
